According to ChEMBL document CHEMBL5291721, “A preclinical secondary pharmacology resource illuminates target-adverse drug reaction associations of marketed drugs” (Nat Commun, 2023):

Experiments:
[1] = biological target: T1, Alpha-1A adrenergic receptor (Homo sapiens, UniProt P35348)
T1 sequence (P35348 whole entry): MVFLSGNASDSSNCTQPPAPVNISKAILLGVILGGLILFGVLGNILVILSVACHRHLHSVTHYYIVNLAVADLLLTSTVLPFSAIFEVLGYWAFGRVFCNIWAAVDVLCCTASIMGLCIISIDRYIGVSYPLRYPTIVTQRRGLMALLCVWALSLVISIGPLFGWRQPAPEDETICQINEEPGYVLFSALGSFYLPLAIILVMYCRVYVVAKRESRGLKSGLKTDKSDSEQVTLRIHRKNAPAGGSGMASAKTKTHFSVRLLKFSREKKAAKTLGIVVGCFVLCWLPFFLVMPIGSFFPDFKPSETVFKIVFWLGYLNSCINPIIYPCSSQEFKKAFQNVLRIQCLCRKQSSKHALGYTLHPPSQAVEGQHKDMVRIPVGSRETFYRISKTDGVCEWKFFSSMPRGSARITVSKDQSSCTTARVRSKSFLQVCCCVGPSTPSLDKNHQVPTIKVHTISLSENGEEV

Cannabinoid receptor 1 = Cannabinoid receptor 1 (Homo sapiens, UniProt P21554)
Estrogen receptor = biological target: T2, Estrogen receptor (Homo sapiens, UniProt P03372)
T2 sequence (P03372 whole entry): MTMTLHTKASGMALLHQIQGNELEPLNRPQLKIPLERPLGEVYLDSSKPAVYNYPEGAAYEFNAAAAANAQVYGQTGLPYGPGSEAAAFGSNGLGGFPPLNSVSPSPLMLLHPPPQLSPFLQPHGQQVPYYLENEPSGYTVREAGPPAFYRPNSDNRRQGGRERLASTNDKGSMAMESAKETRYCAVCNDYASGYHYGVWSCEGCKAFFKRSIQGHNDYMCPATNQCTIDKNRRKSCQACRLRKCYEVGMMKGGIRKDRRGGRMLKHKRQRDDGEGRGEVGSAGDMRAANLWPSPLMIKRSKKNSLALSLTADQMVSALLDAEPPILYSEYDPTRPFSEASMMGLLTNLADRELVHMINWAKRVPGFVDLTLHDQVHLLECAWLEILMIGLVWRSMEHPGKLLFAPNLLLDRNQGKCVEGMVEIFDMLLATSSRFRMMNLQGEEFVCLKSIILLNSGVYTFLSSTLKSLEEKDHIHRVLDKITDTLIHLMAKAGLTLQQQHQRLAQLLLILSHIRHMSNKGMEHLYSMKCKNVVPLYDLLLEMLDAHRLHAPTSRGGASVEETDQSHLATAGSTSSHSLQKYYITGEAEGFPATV

Melanocortin receptor 4 = Melanocortin receptor 4 (Homo sapiens, UniProt P32245)
Mu-type opioid receptor [2] = biological target: T3, Mu-type opioid receptor (Homo sapiens, UniProt P35372)
[3] = biological target: T4, 5-hydroxytryptamine receptor 1A (Homo sapiens, UniProt P08908)
T4 sequence (P08908 whole entry): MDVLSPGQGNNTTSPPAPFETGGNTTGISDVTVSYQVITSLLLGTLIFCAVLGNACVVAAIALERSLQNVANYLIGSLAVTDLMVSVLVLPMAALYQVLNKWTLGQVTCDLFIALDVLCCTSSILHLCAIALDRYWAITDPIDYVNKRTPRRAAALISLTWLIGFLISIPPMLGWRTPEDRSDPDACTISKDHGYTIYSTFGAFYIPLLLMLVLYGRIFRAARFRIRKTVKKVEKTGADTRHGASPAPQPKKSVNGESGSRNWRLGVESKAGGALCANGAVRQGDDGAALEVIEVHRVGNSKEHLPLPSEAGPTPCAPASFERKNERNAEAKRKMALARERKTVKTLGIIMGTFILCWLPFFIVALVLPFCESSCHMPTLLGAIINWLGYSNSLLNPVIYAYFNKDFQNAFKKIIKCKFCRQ

[4] = biological target: T1, Alpha-1A adrenergic receptor; type: functional, cell-based
[5] = biological target: T4, 5-hydroxytryptamine receptor 1A; type: functional, cell-based
[6] = biological target: T5, Muscarinic acetylcholine receptor M1 (Homo sapiens, UniProt P11229); type: functional
T5 sequence (P11229 whole entry): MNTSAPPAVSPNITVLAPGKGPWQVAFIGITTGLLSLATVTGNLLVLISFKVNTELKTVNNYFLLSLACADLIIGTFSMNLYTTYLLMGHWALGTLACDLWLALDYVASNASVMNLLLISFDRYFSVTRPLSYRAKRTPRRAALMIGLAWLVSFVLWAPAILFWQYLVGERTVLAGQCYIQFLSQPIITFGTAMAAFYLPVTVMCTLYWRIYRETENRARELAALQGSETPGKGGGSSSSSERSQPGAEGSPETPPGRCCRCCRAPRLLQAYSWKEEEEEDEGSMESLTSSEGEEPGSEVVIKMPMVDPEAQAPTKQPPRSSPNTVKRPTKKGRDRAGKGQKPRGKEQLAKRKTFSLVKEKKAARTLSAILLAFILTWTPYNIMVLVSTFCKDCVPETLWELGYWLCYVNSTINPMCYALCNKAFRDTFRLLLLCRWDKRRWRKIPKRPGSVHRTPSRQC

Mu-type opioid receptor [7] = biological target: T3, Mu-type opioid receptor; assay: biochemical; type: functional

Measured: AC50
Further: assay procedure not described here.

Sequence of Cannabinoid receptor 1 (P21554 whole entry): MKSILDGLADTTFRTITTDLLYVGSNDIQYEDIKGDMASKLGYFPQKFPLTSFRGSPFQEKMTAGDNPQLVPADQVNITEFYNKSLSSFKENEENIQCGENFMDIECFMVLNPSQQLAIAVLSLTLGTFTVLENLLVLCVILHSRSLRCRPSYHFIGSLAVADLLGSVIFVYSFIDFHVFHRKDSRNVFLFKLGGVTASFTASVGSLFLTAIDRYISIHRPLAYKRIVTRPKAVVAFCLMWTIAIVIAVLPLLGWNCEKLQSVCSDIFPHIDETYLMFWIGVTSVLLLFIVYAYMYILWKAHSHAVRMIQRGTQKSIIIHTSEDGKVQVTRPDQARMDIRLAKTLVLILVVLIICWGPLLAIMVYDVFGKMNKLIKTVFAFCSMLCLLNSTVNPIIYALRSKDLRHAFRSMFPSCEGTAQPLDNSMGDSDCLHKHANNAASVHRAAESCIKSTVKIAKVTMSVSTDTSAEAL
T3 sequence (P35372 whole entry): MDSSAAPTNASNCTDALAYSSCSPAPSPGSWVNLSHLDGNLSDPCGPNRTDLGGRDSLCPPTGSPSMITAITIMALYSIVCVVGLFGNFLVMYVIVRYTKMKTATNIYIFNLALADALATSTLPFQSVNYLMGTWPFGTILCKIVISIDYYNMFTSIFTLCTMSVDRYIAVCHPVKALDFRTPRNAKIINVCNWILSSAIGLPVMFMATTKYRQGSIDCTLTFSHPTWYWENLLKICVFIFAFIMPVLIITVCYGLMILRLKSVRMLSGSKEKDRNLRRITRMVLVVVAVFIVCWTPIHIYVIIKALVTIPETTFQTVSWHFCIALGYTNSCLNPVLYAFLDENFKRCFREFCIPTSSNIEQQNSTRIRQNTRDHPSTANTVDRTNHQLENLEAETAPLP
Sequence of Melanocortin receptor 4 (P32245 whole entry): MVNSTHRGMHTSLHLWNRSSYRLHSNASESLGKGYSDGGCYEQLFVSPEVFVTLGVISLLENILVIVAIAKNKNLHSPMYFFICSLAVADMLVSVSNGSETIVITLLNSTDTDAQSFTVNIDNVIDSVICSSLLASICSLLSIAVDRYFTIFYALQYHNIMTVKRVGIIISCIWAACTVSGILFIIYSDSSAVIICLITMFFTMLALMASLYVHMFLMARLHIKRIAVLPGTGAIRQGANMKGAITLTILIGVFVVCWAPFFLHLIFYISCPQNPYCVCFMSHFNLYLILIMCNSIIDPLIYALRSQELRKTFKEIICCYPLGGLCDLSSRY

Cc1cc(=O)n(-c2ccccc2)n1C [ANTIPYRINE]
> 10 µM: [1] | Cannabinoid receptor 1 | [3]
> 30 µM: Estrogen receptor | Melanocortin receptor 4 | Mu-type opioid receptor [2] | [4]

COc1cc(N)c(Cl)cc1C(=O)NC1CCN(CCCOc2ccc(F)cc2)CC1OC (centres undefined) [CISAPRIDE]
> 30 µM: Estrogen receptor | Melanocortin receptor 4 | Mu-type opioid receptor [2]
> 10 µM: Cannabinoid receptor 1 | [5] | [3]
0.593 µM: [1]

CCOC(=O)C(C)(C)Oc1ccc(Cl)cc1 [CLOFIBRATE]
> 10 µM: [1] | Cannabinoid receptor 1 | [5] | [3]
> 30 µM: Estrogen receptor | Melanocortin receptor 4 | Mu-type opioid receptor [2] | [4]

CCCCOc1ccc(C(=O)CCN2CCCCC2)cc1 [DYCLONINE]
9.66 µM: [1]
> 30 µM: Estrogen receptor | Melanocortin receptor 4 | [4]
> 10 µM: [6] | Cannabinoid receptor 1 | [5] | Mu-type opioid receptor [2] | [3]

NNC(=O)c1ccncc1 [ISONIAZID]
> 30 µM: Cannabinoid receptor 1 | Estrogen receptor | Melanocortin receptor 4 | Mu-type opioid receptor [7] | Mu-type opioid receptor [2] | [4]
> 10 µM: [1] | [5] | [3]

O=C1Nc2ccc(Cl)cc2C(c2ccccc2Cl)=NC1O (centres undefined) [LORAZEPAM]
> 10 µM: [1] | Cannabinoid receptor 1 | [5] | [3]
> 30 µM: Estrogen receptor | Melanocortin receptor 4 | Mu-type opioid receptor [2] | [4]

CCC(=O)O[C@](Cc1ccccc1)(c1ccccc1)[C@H](C)CN(C)C [PROPOXYPHENE]
> 10 µM: [6] | Cannabinoid receptor 1 | [5] | [3]
> 30 µM: Melanocortin receptor 4 | [4]
8.05 µM: [1]
0.17 µM: Mu-type opioid receptor [7]
0.693 µM: Mu-type opioid receptor [2]

CCc1nc(N)nc(N)c1-c1ccc(Cl)cc1 [PYRIMETHAMINE]
> 10 µM: Cannabinoid receptor 1 | Estrogen receptor | [5] | Melanocortin receptor 4 | [3]
4 µM: [1]
> 30 µM: [6] | Mu-type opioid receptor [7] | Mu-type opioid receptor [2] | [4]

CCOC(=O)c1ccc(C#Cc2ccc3c(c2)C(C)(C)CCS3)nc1 [TAZAROTENE]
> 30 µM: Melanocortin receptor 4 | Mu-type opioid receptor [2] | [4]
> 10 µM: [1] | [6] | Cannabinoid receptor 1 | [3]
